Measured values from patent publication US7235649B2, “Isolated GRP94 ligand binding domain polypeptide and nucleic acid encoding same, and screening methods employing same” (Duke University, priority 2000, dated 2007).

What was measured:
BiP = assay: [3H]-NECA binding assay (vacuum filtration); parameters: species or system porcine; conditions: 20 nM [3H]-NECA, 60 min on ice
Protocol: BiP was purified by the following procedure. A lumenal protein fraction obtained from porcine pancreas rough microsomes was cycled overnight through a 1 ml ADP-agarose and a 1 ml ATP-agarose (Sigma Chemical Co. of St. Louis, Mo.) column coupled in series. […] The BiP containing fractions were identified by SDS-PAGE, and dialyzed against 2×4 L of buffer A (110 mM KOAc, 20 mM NaCl, 25 mM K-Hepes, pH 7.2, 2 mM Mg(OAc)2 0.1 mM CaCl2). The protein sample was then applied to a SUPERDEX® 26/60 column (Amersham Pharmacia Biotech of Piscataway, N.J.) equilibrated in buffer A, and the BiP containing fractions, again identified by SDS-PAGE, were pooled and concentrated by centrifugal ultrafiltration (CENTRICON-30®; Amicon of Beverly, Mass.).
[^3H]-NECA Binding Assay.
In similar experiments, [^3H]-NECA binding to Hsp90 was evaluated in the presence of molybdate and NP-40, which are known to stabilize the Hsp90 conformation associated with ATP binding, as described by Sullivan et al. (1997).

casein kinase II = casein kinase II (Homo sapiens, UniProt P68400); assay: Casein kinase II assay with casein; type: biochemical; conditions: 180 μM NECA or 180 μM radicicol in 3.6% DMSO, 5 μg/ml heparin, 5 mM GTP; 4 μM casein
Sequence of casein kinase II (P68400 whole entry): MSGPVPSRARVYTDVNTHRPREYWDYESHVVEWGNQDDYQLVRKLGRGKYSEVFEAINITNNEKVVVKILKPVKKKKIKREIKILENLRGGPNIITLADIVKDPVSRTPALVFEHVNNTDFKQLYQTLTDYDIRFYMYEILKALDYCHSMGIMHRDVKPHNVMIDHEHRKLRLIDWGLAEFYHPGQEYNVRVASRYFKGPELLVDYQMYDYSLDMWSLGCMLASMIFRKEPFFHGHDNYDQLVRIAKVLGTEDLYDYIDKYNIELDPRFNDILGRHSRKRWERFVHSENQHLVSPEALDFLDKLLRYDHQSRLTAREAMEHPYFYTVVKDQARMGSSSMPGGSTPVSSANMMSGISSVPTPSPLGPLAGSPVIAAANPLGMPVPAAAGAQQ
Sequence of casein kinase II (P67870 whole entry partner): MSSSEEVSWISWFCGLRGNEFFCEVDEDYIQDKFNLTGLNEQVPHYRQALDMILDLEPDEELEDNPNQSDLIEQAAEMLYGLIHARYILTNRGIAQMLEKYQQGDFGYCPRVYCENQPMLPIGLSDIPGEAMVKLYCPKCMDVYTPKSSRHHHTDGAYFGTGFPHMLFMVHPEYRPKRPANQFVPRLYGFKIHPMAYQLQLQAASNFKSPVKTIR
Protocol: (§1) Phosphorylation Assays. […] For the casein kinase assay, 1 unit of casein kinase 11 was incubated as described above, with the addition of 4 μM casein. […] The 25 μl reaction mixtures were incubated at 37° C. for 1 hour and quenched by addition of 10% trichloroacetic acid. Samples were analyzed by 10% SDS-PAGE gels and the phosphorylated species were quantitated using a Fuji MACBAS1000™ phosphorimaging system (Fuji Medical Systems of Stamford, Conn.).

GRP94 [1] = biological target: T1, GRP94 (Sus scrofa, UniProt Q29092); assay: Tryptophan fluorescence (ligand-induced conformational change); conditions: 50 μM NECA, 50 μM geldanamycin, 2.5 mM ATP or 2.5 mM ADP, 1 hour at 37° C.
T1 sequence (Q29092 22-804): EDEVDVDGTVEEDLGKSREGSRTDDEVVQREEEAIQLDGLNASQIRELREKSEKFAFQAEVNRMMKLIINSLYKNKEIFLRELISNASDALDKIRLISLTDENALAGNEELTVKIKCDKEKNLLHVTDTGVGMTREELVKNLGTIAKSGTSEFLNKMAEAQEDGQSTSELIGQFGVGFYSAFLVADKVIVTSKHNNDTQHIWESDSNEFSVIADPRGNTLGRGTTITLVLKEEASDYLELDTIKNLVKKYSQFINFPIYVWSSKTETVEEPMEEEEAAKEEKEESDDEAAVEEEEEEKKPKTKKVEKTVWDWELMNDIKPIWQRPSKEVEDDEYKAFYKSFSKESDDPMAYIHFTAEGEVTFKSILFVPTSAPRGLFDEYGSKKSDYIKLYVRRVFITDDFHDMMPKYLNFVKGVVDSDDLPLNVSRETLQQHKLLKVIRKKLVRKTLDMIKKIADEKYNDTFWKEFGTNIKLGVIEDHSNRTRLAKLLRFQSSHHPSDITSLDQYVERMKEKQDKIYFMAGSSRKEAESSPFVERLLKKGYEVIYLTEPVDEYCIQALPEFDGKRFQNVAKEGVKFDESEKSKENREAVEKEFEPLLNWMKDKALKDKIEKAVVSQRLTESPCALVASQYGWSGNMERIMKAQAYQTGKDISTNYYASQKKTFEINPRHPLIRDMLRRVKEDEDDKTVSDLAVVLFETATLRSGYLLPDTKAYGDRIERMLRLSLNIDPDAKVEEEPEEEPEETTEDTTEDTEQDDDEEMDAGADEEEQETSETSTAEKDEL
Protocol: Tryptophan Fluorescence. Tryptophan fluorescence measurements were conducted in a FLUOROMAX™ spectrofluorometer (Spex Industries, Inc. of Edison, N.J.) with the slit widths set to 1 nm for both excitation and emission. […] All spectra were corrected by subtraction of buffer or buffer plus ligand samples. […] Samples were then cooled to room temperature, transferred to a quartz cuvette, and the spectra collected.

GRP94 [2] = biological target: T1, GRP94; assay: [3H]-NECA binding assay (vacuum filtration); parameters: GRP94 was purified from porcine pancreas rough microsomes; from tissue; host or cells: porcine pancreas rough microsomes; species or system porcine
GRP94 [3] = biological target: T1, GRP94; assay: Isothermal titration calorimetry; type: binding, porcine; parameters: GRP94 was purified from porcine pancreas rough microsomes; from tissue; host or cells: porcine pancreas rough microsomes; conditions: 5 μM GRP94, 152 μM NECA stock, 25° C.
Protocol: Isothermal calorimetry experiments were performed at 25° C. using a MSC calorimeter (MicroCal Inc. of Northampton, Mass.). […] Necessary corrections were made by subtracting the heats of dilution resulting from buffer addition to protein solution and ligand solution into buffer.

GRP94 [4] = biological target: T1, GRP94; assay: [3H]-NECA competitive displacement assay; type: binding, porcine; parameters: GRP94 was purified from porcine pancreas rough microsomes; from tissue; host or cells: porcine pancreas rough microsomes; conditions: 10 mM Mg(OAc)2 vs nominal endogenous magnesium
GRP94 [5] = biological target: T1, GRP94; assay: GRP94 autophosphorylation assay; type: biochemical, porcine; parameters: GRP94 was purified from porcine pancreas rough microsomes; from tissue; host or cells: porcine pancreas rough microsomes; conditions: 180 μM NECA or 180 μM radicicol in 3.6% DMSO, 5 μg/ml heparin, 5 mM GTP; 1 hour 37° C.
Protocol: as §1

CCNC(=O)[C@H]1O[C@@H](n2cnc3c(N)ncnc32)[C@H](O)[C@@H]1O [NECA, N-ethylcarboxamidoadenosine]
[3H]-NECA binding to BiP (BiP): not observed | effect on casein kinase II activity (casein kinase II): neither NECA nor radicicol, both of which bind to the N-terminal nucleotide binding domain of GRP94, significantly inhibit GRP94 derived or casein kinase II activity | change of GRP94 tryptophan fluorescence (GRP94 [1]): increased the tryptophan fluorescence | [3H]-NECA binding activity of GRP94 (GRP94 [2]; 20 nM [3H]-NECA, 60 min on ice): readily detectable | stoichiometry of NECA bound to GRP94 at saturation (summary) (GRP94 [2]; ligand binding studies and isothermal titration calorimetry): 1 mol NECA:mol GRP94 dimer | Hill plot slope of [3H]-NECA binding (GRP94 [2]; saturation binding): 1.2 | binding stoichiometry of [3H]-NECA (GRP94 [2]; saturation binding): 0.5 mol [^3H]-NECA/mol GRP94 monomer | maximal binding stoichiometry of NECA (GRP94 [2]; saturation curve, FIG. 9B): 1 molecule of NECA per molecule of GRP94 dimer | binding stoichiometry of NECA by isothermal titration calorimetry (GRP94 [3]): 1.1 mol NECA/mol GRP94 dimer | effect of excess Mg2+ on binding to GRP94 (GRP94 [4]): without effect | effect on GRP94 autophosphorylation activity (GRP94 [5]): does not significantly inhibit GRP94 autophosphorylation activity
